Measured values: US8389440B2, “Synergistic insecticide mixtures” (Bayer Cropscience AG, priority 2002, dated 2013)

Assays:
[1] = tested on: Heliothis armigera caterpillars; assay: Heliothis armigera test; assay type: in vivo; settings: found effect, dipped soya bean shoots
[2] = tested on: mustard beetle larvae (Phaedon cochleariae); assay: Phaedon larvae test; assay type: in vivo; settings: found effect, dipped cabbage leaves
[3] = tested on: army worm caterpillars (Spodoptera frugiperda); assay: Spodoptera frugiperda test; assay type: in vivo; settings: found effect, dipped cabbage leaves
Source text: Spodoptera Frugiperda Test

[4] = tested on: diamond-back moth caterpillars (Plutella xylostella, resistant strain); settings: found effect, dipped cabbage leaves
Description: Plutella Test, Resistant Strain
After the desired period, the destruction in % is determined. 100% means that all of the caterpillars have been destroyed; 0% means that no caterpillars have been destroyed.

Row | Compound | LC50 after 6 days [1] | LC95 after 3 days [2] | LC50 after 6 days [3] | LC50 after 6 days [4]
1 | CC[C@H](C)[C@H]1O[C@]2(C=C[C@@H]1C)C[C@@H]1C[C@@H](C/C=C(\C)[C@@H](O[C@H]3C[C@H](OC)[C@@H](O[C@H]4C[C@H](OC)[C@@H](O)[C@H](C)O4)[C@H](C)O3)[C@@H](C)/C=C/C=C3\CO[C@@H]4[C@H](O)C(C)=C[C@@H](C(=O)O1)[C@]34O)O2 [Avermectin, abamectin] | 0.014 ppm | 0.281 ppm | 5.553 ppm | –
2 | CN/C(=N\[N+](=O)[O-])NCC1CCOC1 (centres unmarked) [Dinotefuran, dinotefuran] | 13.165 ppm | 42.07 ppm | 2.861 ppm | 27.621 ppm
3 | emamectin benzoate | – | – | – | 0.174 ppm
